According to a melting point compilation (Tetko et al.; mined from patent text by program, amines drawn as free bases though some values may be those of a salt):

Compound | melting point [°C]
Cc1nc(NC(=O)c2cnn3c(C(F)(F)F)cc(-c4ccc(C(F)(F)F)cc4)nc23)sc1S(=O)(=O)NC(C)(CO)CO | 250
COc1cc(NC(=O)C(F)(F)F)ccc1N1CCN(CCN(C(=O)C2CCCCC2)c2ccccn2)CC1 | 144 to 148
O=C1NC(=O)c2c1c(-c1ccccc1)cc1[nH]c3ccccc3c21 | 262 to 264
CC(=NO)C(=O)c1ccc(OCc2cccc(C(F)(F)F)c2)cc1 | 137 to 138
CCCn1c(=O)c(-c2ccccc2)c2n(c1=O)C=CCS2=O (stereo not drawn) | 174 to 175
COc1ccc2c(OC)c(C(C)C)cc(Br)c2c1 | 108 to 110
CCCCNC(=O)Nc1ccc(N(C)C)cc1C(=O)NCC1CCN(C(c2ccccc2)c2ccccc2)CC1 | 201 to 203
N#Cc1ccc(S(=O)(=O)Nc2cccnc2Nc2ccccc2)cc1 | 155 to 157
OCC(O)COc1noc2ccc(Cl)cc12 (stereo not drawn) | 61 to 62
Nc1cc(=O)n(Cc2ccc(Br)c(Br)c2)[nH]1 | 182
CC(C)Cn1cnc2c(N)nc3ccc(CCc4ccccc4)cc3c21 | 175 to 178
O=[N+]([O-])c1ccc(N2CCN(Cc3ccccc3)CC2)cc1 | 115 to 118
Clc1ccc(C2=CCCc3cc(Cl)c(Cl)cc32)cc1 | 106 to 108
CCOC(=O)c1cn(-c2ccccc2)nc1NC=O | 135 to 136
Cc1ccc(NC(=O)N2CC(C)(C)NC(C)(C)CC2=O)cc1 | 126
Cc1noc(NS(=O)(=O)c2ccccc2-c2cccs2)c1C | 112 to 115
O=C(O)Cc1onc(O)c1Br | 167
COc1ccc(-c2[nH]nc3c2C(=O)c2c(NC(=O)NNC(=O)c4ccncc4)cccc2-3)cc1 | 248
CC[Si](C#Cc1c2ccccc2c2ccc3c(C#C[Si](CC)(CC)CC)c4ccccc4c4ccc1c2c34)(CC)CC | 300 to 307
O=C1CC(O)c2c1cc[nH]c2=O (stereo not drawn) | 200
O=C(O)c1ccc(C(F)F)c2ccccc12 | 179 to 180
CS(=O)c1cn(-c2c(Cl)cc(C(F)(F)F)cc2Cl)nc1C=NO (stereo not drawn) | 239 to 240
CCCCOc1ccc(C(=O)NC[C@@H](C(=O)NO)N2CCN(S(C)(=O)=O)CC2)cc1 | 130

Compound | melting point [°C]
O=C1CCC(c2ccc(N=C(CCCc3ccccc3)c3ccc(O)cc3O)cc2)=NN1 | 274 to 280
COc1ccc(CNc2c(C)c(C)c3c(c2C)C(c2ccc(C(C)C)cc2)C(C)(C)O3)cc1 (stereo not drawn) | 95 to 96
Cc1cc(C2CC2)nc(N)n1 | 113 to 115
COc1ccc(C#N)c(F)c1OC | 64 to 65
CN1C(=O)c2ccccc2C(CCO)N1c1cccc([N+](=O)[O-])c1 (stereo not drawn) | 183 to 184
CC(=NOCCOc1ccc(CC2SC(=O)NC2=O)cc1)c1ccc(-c2ccc(C(F)(F)F)cc2)cc1 (stereo not drawn) | 165 to 166
Cn1c(C(F)(F)F)cc(=O)n(C(c2ccc3c(c2)C(=O)NC3=O)c2nsc3ccccc23)c1=O (stereo not drawn) | 204 to 208
ClCCN(CCCl)CCOc1cccc(Nc2c3ccccc3nc3c(OCCN(CCCl)CCCl)cccc23)c1 | 108 to 109
Cc1cccc(C2CCN(CCCCCC(=O)N3Cc4ccccc4C3)CC2)c1C#N | 132
CCOC(=O)CN1CCN(C(=O)OC(C)(C)C)CC1 | 67 to 69
CCCCc1oc2ccccc2c1C(=O)NCc1ccc2c(-c3ccccc3)c(O)ccc2c1 | 72
CC(C)(C(=O)N1CCc2ccccc2C1)c1ccc(S(=O)(=O)/C=C/C#N)cc1 | 54 to 60
COc1ccc(C=N[C@H]2C(OC(C)=O)O[C@H](COC(C)=O)[C@@H](OC(C)=O)[C@@H]2OC(C)=O)cc1 (stereo partly drawn) | 180 to 181
CN1C(=O)C(C)(C)N=C(c2ccccc2Cl)c2cc([N+](=O)[O-])ccc21 | 177 to 178
COc1ccc(C2=NN(C3CCSCC3)C(=O)[C@H]3CC=CC[C@@H]23)cc1Cl (relative stereo) | 170 to 171
Cc1cc2c(cc1OC(=S)N(C)C)C(C)(C)CCC2(C)C | 102 to 103
CCOC(=O)c1ccc(NCCCCCCCCc2ccccc2)cc1 | 61 to 68
CCCCCN1C(=O)C(CCC(=O)OCC)(NC(=O)c2ccc3ccccc3c2)c2ccc(OC)cc21 (stereo not drawn) | 156 to 159
Cc1ccc2c(c1)cc(Cc1ccc(C(=O)O)cc1)n2S(=O)(=O)c1cccc(C(C)(C)C)c1 | 161
CCCOC(=O)n1cc2c(n1)NC(CCC)=C(C(=O)OCC)C2c1ccccc1Cl (stereo not drawn) | 59
Cc1cc(N)c2c(c1Cl)CC(C)O2 (stereo not drawn) | 157 to 160
CC(=O)Oc1c(C)c(C)c2c(c1C)CC(C)(C(=O)Nc1cnc3c(C)cc(C)cc3c1-c1ccccc1Cl)O2 (stereo not drawn) | 259 to 261
CN(C)S(=O)(=O)c1ccc(C(O)c2cccc(O[Si](C)(C)C(C)(C)C)c2)cc1 (stereo not drawn) | 100 to 103

Compound | melting point [°C]
CC1(C)CN(CC2Cc3nccnc3C2)c2nc(-c3ccncn3)cc(=O)n2C1 | 193 to 195
Cc1c(O)ccc2c(C(F)(F)F)cc(=O)oc12 | 114 to 116
O=C(O)c1cc2cc(Br)ccc2nc1N[C@H](Cc1ccccc1)C(=O)O | 140 to 141
O=C1Nc2cccc(-c3ccc(Oc4ccccc4)cc3)c2C12COc1cc3c(cc12)OCCO3 (stereo not drawn) | 243 to 246
COC(=O)C1Cc2c([nH]c3ccccc23)C(c2ccc(Cl)cc2Cl)N1 (stereo not drawn) | 128 to 130
C#CCN(C(=O)C(Cl)Cl)C(C)C | 58 to 59
CC(=O)Nc1cc(C(=O)c2ccc(S(=O)(=O)CCO)c(NC(C)=O)c2)ccc1S(=O)(=O)CCO | 189 to 192
COc1ccc(CCC(=O)NCCc2cccc(C)c2)cc1OC | 100 to 103
O=[N+]([O-])c1ccc(F)c(-c2ccsc2)c1 | 65
CC(=O)Oc1c(Cc2ccccc2)cc(C(C)=O)c2ccccc12 | 118 to 120
CSc1cc(C(=O)O)cc(C(F)(F)F)c1 | 135 to 140
CC(C)Oc1ccc(CCCCOc2cc(CCC(=O)O)n(C)n2)c(Oc2ncc(C(F)(F)F)cc2Cl)c1 | 156 to 157
COc1ccccc1CNc1nccc2ccccc12 | 111 to 113
CCOCc1nc2c(N)nc3cc(-c4cccnc4)ccc3c2n1CCCCNC(=O)c1ccc(C(OCCN(C)C)c2ccccc2)cc1 (stereo not drawn) | 157 to 161
COc1nccc(-c2ccc3cc(N(C)C)ccc3c2)c1C#N | 150 to 151
O=c1[nH]c2ccccc2c2c(CO)c(CO)nn12 | 247 to 250
Cc1cnc(-c2cc(F)ccc2CNC(=O)c2nc3n(c(=O)c2OCc2ccccc2)CCOC3(C)C)o1 | 186
Cc1nnc(Cl)c(-c2c(F)cccc2Cl)c1-c1ccc(Cl)nc1 | 166 to 167
CCCC(C)(Oc1ccc(CC(=O)Nc2cc(C)cc(C)c2)cc1)C(=O)O (stereo not drawn) | 145 to 147
CCOC(=O)COc1cccc2oc(-c3ccccc3)cc(=O)c12 | 89.5 to 90.5
O=C(Nc1ccc(-c2ccc(C(=O)N3CCN4CCC3CC4)o2)cc1)Nc1cccc(C(F)(F)F)c1 | 171
COc1cccc(CN2N=C(c3ccc(OC)c(OC)c3)[C@@H]3CCCC[C@@H]3C2=O)c1 (relative stereo) | 115
